From patent US20240101572A1, “DIHYDROOXADIAZINONE COMPOUND AND PHARMACEUTICAL USE THEREOF” (Japan Tobacco Inc., priority 2022, published 2024) come the findings set out here.

For one experiment, the target named is full-length human PLD1 (Homo sapiens (Human), UniProt Q13393). The experiment in a line: Evaluation of human PLD1 enzyme inhibitory activity (Amplex Red / choline oxidase fluorescence). In kind it is biochemical. The method, boiled down:
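N-terminally FLAG-tagged full-length human PLD1 (1-1036), expressed in Expi293F and FLAG-purified, incubated with compound (5% DMSO final) and 1,2-diheptanoyl-sn-glycero-3-phosphocholine for 60 min at room temperature in HEPES pH 7.5 buffer. Released choline detected by Amplex Red/choline oxidase/HRP fluorescence.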

In a further experiment the target is full-length human PLD2 (Homo sapiens (Human), UniProt O14939). The experiment in a line: Evaluation of human PLD2 enzyme inhibitory activity (Amplex Red / choline oxidase fluorescence). In kind it is biochemical. A digest of the protocol: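 Enzyme was N-terminal FLAG-tagged full-length human PLD2 (1-933), expressed in Expi293F cells and anti-FLAG purified. Compound (5% DMSO final) was incubated with enzyme (6 nmol/L solution) and 1,2-diheptanoyl-PC (6 mmol/L solution) in HEPES pH 7.5, KCl, EGTA, MgCl2, NP-40, BSA buffer for 60 min at room temperature. Choline was detected with Amplex Red/choline oxidase/HRP.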

Where [1] appears, read: full-length human PLD1 enzyme, read-out: PLD1 IC50.
The mark [2] stands for this setting: full-length human PLD2 enzyme, read-out: PLD2 IC50.

Like-named read-outs stand apart in the source and are kept apart here.

Sequence of full-length human PLD1 (Q13393 other isoform, or with tags, fused parts or gaps): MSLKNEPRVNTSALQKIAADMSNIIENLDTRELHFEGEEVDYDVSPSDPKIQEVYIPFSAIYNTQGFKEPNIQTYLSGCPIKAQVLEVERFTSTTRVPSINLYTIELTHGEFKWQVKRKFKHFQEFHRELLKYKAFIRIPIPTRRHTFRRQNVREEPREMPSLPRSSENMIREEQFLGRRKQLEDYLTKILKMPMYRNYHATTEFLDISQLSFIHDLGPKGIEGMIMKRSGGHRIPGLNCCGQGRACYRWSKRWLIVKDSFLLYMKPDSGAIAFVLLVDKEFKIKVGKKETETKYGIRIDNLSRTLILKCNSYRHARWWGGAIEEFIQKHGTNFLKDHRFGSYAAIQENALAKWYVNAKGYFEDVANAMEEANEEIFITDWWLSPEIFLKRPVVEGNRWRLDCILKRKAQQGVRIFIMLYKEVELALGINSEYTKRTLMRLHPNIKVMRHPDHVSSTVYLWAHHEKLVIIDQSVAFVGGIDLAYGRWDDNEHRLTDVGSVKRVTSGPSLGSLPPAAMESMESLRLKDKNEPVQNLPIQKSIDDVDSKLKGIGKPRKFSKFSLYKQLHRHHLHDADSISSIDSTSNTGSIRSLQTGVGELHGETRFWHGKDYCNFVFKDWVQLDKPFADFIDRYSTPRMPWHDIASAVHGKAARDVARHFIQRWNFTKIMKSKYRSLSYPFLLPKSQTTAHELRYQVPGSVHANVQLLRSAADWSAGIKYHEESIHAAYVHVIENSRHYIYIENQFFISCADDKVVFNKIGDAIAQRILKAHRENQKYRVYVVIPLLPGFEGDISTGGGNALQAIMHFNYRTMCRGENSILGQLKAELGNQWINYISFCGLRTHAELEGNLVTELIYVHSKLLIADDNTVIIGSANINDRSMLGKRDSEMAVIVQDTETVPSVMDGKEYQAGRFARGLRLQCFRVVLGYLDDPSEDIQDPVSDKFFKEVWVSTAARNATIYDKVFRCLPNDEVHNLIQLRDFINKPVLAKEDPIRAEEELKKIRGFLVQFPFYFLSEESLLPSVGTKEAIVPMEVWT
Sequence of full-length human PLD2 (O14939 whole entry): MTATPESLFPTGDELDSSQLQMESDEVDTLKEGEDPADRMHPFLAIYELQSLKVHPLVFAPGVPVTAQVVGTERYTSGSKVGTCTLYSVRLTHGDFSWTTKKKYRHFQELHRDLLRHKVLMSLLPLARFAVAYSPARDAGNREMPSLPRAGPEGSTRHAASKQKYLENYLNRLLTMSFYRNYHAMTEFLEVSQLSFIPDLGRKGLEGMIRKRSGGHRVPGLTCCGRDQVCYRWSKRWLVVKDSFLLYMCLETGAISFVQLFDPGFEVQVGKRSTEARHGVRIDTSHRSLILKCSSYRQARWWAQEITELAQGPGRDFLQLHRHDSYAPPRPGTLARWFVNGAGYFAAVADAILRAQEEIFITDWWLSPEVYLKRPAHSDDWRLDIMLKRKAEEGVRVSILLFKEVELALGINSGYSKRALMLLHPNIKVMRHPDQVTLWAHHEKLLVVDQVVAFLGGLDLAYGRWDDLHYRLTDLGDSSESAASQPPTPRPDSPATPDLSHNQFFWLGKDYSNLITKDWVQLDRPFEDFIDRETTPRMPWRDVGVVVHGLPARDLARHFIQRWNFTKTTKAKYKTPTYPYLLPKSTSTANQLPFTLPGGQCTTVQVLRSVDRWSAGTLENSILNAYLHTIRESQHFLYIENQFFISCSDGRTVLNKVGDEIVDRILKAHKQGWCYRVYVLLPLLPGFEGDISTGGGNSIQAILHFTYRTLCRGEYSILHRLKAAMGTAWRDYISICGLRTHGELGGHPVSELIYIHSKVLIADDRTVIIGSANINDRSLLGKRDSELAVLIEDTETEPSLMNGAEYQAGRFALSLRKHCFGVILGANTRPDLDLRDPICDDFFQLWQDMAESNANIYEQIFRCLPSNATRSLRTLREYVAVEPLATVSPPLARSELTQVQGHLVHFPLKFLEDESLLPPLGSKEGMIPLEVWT

In the case of `CNC(=O)C(=O)N[C@@H](C)C[C@]1(C#N)CC[C@@]2(CC1)OC(=O)NN=C2c1cc(OC)ncc1Br` [Example 2-077], the IC50 (commonly the concentration that inhibits the measured activity by half) was 0.015 µM at full-length human PLD1 (setting [1]) and less than 0.01 µM at full-length human PLD2 (setting [2]).
For `C[C@@H](C[C@H]1CC[C@]2(CC1)OC(=O)NN=C2c1ccccc1SC(F)(F)F)NC(=O)c1cnn(C)c1` [Example 2-020], the IC50 at full-length human PLD1 (setting [1]) was found to be 0.021 µM; at full-length human PLD2 (setting [2]), 0.016 µM.
With `CNC(=O)C(=O)N[C@@H](C)C[C@H]1CC[C@]2(CC1)OC(=O)NN=C2c1cc(Br)ccc1C` [Example 212], the IC50 on full-length human PLD1 (setting [1]) and at full-length human PLD2 (setting [2]) was less than 0.01 µM throughout.
In the case of `COc1cc(C)c(C2=NNC(=O)O[C@]23CC[C@@H](C[C@H](C)NC(=O)N2CCn4ncnc4C2)CC3)cn1` [Example 257], the IC50 on full-length human PLD1 (setting [1]) stood at 0.262 µM; at full-length human PLD2 (setting [2]), 0.215 µM.
The matching figures for `Cc1cc(C(=O)N[C@H](C)CN2CCC3(CC2)OC(=O)NN=C3c2ccc(F)cc2Br)[nH]n1` [Example 2-012]: 2.04 µM and 0.245 µM.
Regarding `Cc1cc(F)ccc1C1=NNC(=O)O[C@]12CC[C@@H](C[C@H](C)NC(=O)N1CC[C@H](c3ccccc3)C1)CC2` [Example 137], the IC50 on full-length human PLD1 (setting [1]) stood at 0.505 µM; on full-length human PLD2 (setting [2]), 1.59 µM.
In the same order, the values of `CNC(=O)C(=O)N[C@@H](C)C[C@H]1CC[C@]2(CC1)OC(=O)NN=C2c1cc(C(=O)NC(C)(C)C)ccc1Br` [Example 299] are 0.025 µM and less than 0.01 µM.
The matching figures for `CNC(=O)C(=O)N[C@@H](C)C[C@H]1CC[C@]2(CC1)OC(=O)NN=C2c1ccccc1C` [Example 119]: 0.011 µM and less than 0.01 µM.
In the same order, the values of `Cc1cc(C(=O)N[C@@H](C)CN2CCC3(CC2)OC(=O)NN=C3c2ccc(C#N)cc2Cl)[nH]n1` [Example 169] are 0.034 µM and 0.02 µM.
Regarding `CNC(=O)C(=O)N[C@H](CN1CCC2(CC1)OC(=O)NN=C2c1cc(C#N)ccc1Br)C(F)(F)F` [Example 2-017], the IC50 on full-length human PLD1 (setting [1]) is 0.099 µM; on full-length human PLD2 (setting [2]), 0.045 µM.
Regarding `CNC(=O)C(=O)N[C@@H](C)C[C@H]1CC[C@]2(CC1)OC(=O)NN=C2c1cnc(C(F)(F)F)cc1C` [Example 174], the IC50 turned out to be 0.042 µM on full-length human PLD1 (setting [1]) and 0.017 µM at full-length human PLD2 (setting [2]).
`C[C@@H](C[C@H]1CC[C@]2(CC1)OC(=O)NN=C2c1ccc(F)cc1Br)NC(=O)[C@@H](C)O` [Example 28]: the IC50 on full-length human PLD1 (setting [1]) turned out to be 0.341 µM; on full-length human PLD2 (setting [2]) it was 0.303 µM.
Regarding `C[C@@H](C[C@H]1CC[C@]2(CC1)OC(=O)NN=C2c1cc(Cl)ccc1Cl)NC(=O)c1cc2ccccn2n1` [Example 313], the IC50 worked out at 0.023 µM on full-length human PLD1 (setting [1]) and 0.025 µM at full-length human PLD2 (setting [2]).
In the same order, the values of `C[C@@H](CN1CCC2(CC1)OC(=O)NN=C2c1ccc(F)cc1Br)NC(=O)c1cnn(C)c1` [Example 254] are 0.029 µM and less than 0.01 µM.
Take `C[C@@H](C[C@H]1CC[C@]2(CC1)OC(=O)NN=C2c1ccc(F)cc1Cl)NC(=O)c1cc(Cl)no1` [Example 63]: the IC50 on full-length human PLD1 (setting [1]) and on full-length human PLD2 (setting [2]) was less than 0.01 µM in each case.
Regarding `CNC(=O)C(=O)N[C@@H](C)C(C#N)N1CCC2(CC1)OC(=O)NN=C2c1ccc(F)cc1Br` (mixture of isomers) [Example 2-010], the IC50 at full-length human PLD1 (setting [1]) came to 1.01 µM; on full-length human PLD2 (setting [2]), 1.26 µM.
`CCCS(=O)(=O)c1ccc(C2=NNC(=O)O[C@]23CC[C@@H](C[C@H](C)NC(=O)C(=O)NC)CC3)c(Cl)c1` [Example 77]: the IC50 is 0.026 µM at full-length human PLD1 (setting [1]) and less than 0.01 µM on full-length human PLD2 (setting [2]).
The matching figures for `C[C@@H](C[C@H]1CC[C@]2(CC1)OC(=O)NN=C2c1cc(C#N)ccc1Br)NC(=O)c1cn(C)cn1` [Example 2-071]: 0.013 µM and less than 0.01 µM.
As to `CNC(=O)C(=O)N[C@@H](C)C[C@H]1CC[C@]2(CC1)OC(=O)NN=C2c1cccc(C#N)c1Br` [Example 315], the IC50 at full-length human PLD1 (setting [1]) worked out at 0.025 µM; at full-length human PLD2 (setting [2]) it was 0.024 µM.
In the case of `C[C@@H](C[C@H]1CC[C@]2(CC1)OC(=O)NN=C2c1ccc(F)cc1Br)NC(=O)CCS(C)(=O)=O` [Example 43], the half-inhibitory concentration (IC50) on full-length human PLD1 (setting [1]) worked out at 0.221 µM; at full-length human PLD2 (setting [2]) it was 0.184 µM.
Turning to `CC(C)S(=O)(=O)c1ccc(C2=NNC(=O)O[C@]23CC[C@@H](C[C@H](C)NC(=O)c2cc(Cl)no2)CC3)c(Br)c1` [Example 67], the IC50 at full-length human PLD1 (setting [1]) and on full-length human PLD2 (setting [2]) was less than 0.01 µM throughout.
As to `CNC(=O)C(=O)N[C@@H](C)CN1CCC2(CC1)OC(=O)NN=C2c1ccc(F)cc1Cl` [Example 90], the IC50 on full-length human PLD1 (setting [1]) was found to be 0.045 µM; at full-length human PLD2 (setting [2]), 0.018 µM.
In the same order, the values of `CNC(=O)C(=O)N[C@@H](C)CC1CCC2(CC1)OC(=O)NN=C2c1ccncc1Br` (mixture of isomers) [Example 120] are 0.012 µM and 0.011 µM.
In the same order, the values of `C[C@@H](C[C@H]1CC[C@]2(CC1)OC(=O)NN=C2c1ccc(F)cc1Br)NC(=O)c1cnn(C)c1` [Example 219] are less than 0.01 µM and less than 0.01 µM.
In the case of `C[C@@H](CN1CCC2(CC1)OC(=O)NN=C2c1ccc(C#N)cc1Br)NC(=O)c1cc(Cl)no1` [Example 2-061], the IC50 is 0.014 µM at full-length human PLD1 (setting [1]) and less than 0.01 µM at full-length human PLD2 (setting [2]).
The matching figures for `C[C@@H](CN1CCC2(CC1)OC(=O)NN=C2c1cc(C#N)ccc1Cl)NC(=O)[C@H](O)C(F)(F)F` [Example 2-009]: 2.15 µM and 1.04 µM.
Turning to `CNC(=O)C(=O)N[C@@H](C)C[C@H]1CC[C@]2(CC1)OC(=O)NN=C2c1cccc2c1OC(F)(F)O2` [Example 118], the IC50 at full-length human PLD1 (setting [1]) came out at 0.05 µM; at full-length human PLD2 (setting [2]), 0.073 µM.
In the same order, the values of `CNC(=O)C(=O)N[C@@H](C)C[C@H]1CC[C@]2(CC1)OC(=O)NN=C2c1ccc(F)cc1` [Example 6] are 0.069 µM and 0.12 µM.
`C[C@@H](CN1CCC2(CC1)OC(=O)N(C(=O)NC1CC1)N=C2c1ccc(F)cc1Br)NC(=O)NC1CC1` [Example 190]: the IC50 turned out to be 0.642 µM at full-length human PLD1 (setting [1]) and 0.776 µM on full-length human PLD2 (setting [2]).
In the same order, the values of `C[C@@H](C[C@H]1CC[C@]2(CC1)OC(=O)NN=C2c1ccc(F)cc1Br)NC(=O)C1(F)CC1` [Example 35] are 0.257 µM and 0.367 µM.
The matching figures for `C[C@@H](C[C@H]1CC[C@]2(CC1)OC(=O)NN=C2c1ccc(OCC(C)(C)O)cc1Br)NC(=O)c1cc2ccccc2o1` [Example 132]: 0.014 µM and less than 0.01 µM.
For the compound `CNC(=O)C(=O)N[C@@H](C)C[C@H]1CC[C@]2(CC1)OC(=O)NN=C2c1ccc(C#N)cc1Cl` [Example 175], the IC50 turned out to be 0.021 µM at full-length human PLD1 (setting [1]) and 0.015 µM on full-length human PLD2 (setting [2]).
Consider `Cc1cc(C(=O)N[C@@H](C)C[C@H]2CC[C@]3(CC2)OC(=O)NN=C3c2ccc(S(C)(=O)=O)cc2Br)[nH]n1` [Example 31], for which the half-maximal inhibitory concentration (IC50) on full-length human PLD1 (setting [1]) is 0.024 µM; on full-length human PLD2 (setting [2]), less than 0.01 µM.
In the same order, the values of `Cc1ccncc1C1=NNC(=O)O[C@]12CC[C@@H](C[C@H](C)NC(=O)c1cc(Cl)no1)CC2` [Example 113] are 0.017 µM and 0.013 µM.
The matching figures for `CNC(=O)C(=O)N[C@@H](C)C[C@H]1CC[C@]2(CC1)OC(=O)NN=C2c1ccc(C(F)(F)F)cc1C` [Example 181]: 0.013 µM and less than 0.01 µM.
The matching figures for `CNC(=O)C(=O)N[C@@H](C)[C@H](C)[C@H]1CC[C@]2(CC1)OC(=O)NN=C2c1cc(C#N)ccc1Br` [Example 338]: 0.024 µM and less than 0.01 µM.
Consider `[2H]C([2H])([2H])NC(=O)C(=O)N[C@@H](C)C[C@]1(OC)CC[C@@]2(CC1)OC(=O)NN=C2c1ccc(C#N)cc1Br` [Example 2-130], for which the IC50 at full-length human PLD1 (column 1 of continuation tables 2-12 to 2-14, read-out: human PLD1 enzyme inhibitory activity IC50) is 0.032 µM; on full-length human PLD2 (column 2 of continuation tables 2-12 to 2-14, read-out: human PLD2 enzyme inhibitory activity IC50) it was less than 0.01 µM.
For the compound `CC(=O)N[C@@H](C)C[C@H]1CC[C@]2(CC1)OC(=O)NN=C2c1ccc(OC(F)F)cc1Br` [Example 141], the IC50 on full-length human PLD1 (setting [1]) amounted to 0.141 µM; on full-length human PLD2 (setting [2]) it was 0.164 µM.
The matching figures for `CNC(=O)C(=O)N[C@@H](C)C[C@H]1CC[C@]2(CC1)OC(=O)NN=C2c1cnc(N2CCCCC2)cc1C` [Example 166]: 0.019 µM and less than 0.01 µM.
In the same order, the values of `C[C@@H](C[C@H]1CC[C@]2(CC1)OC(=O)NN=C2c1ccc(S(C)(=O)=O)cc1)NC(=O)c1cc2cc(F)ccc2[nH]1` [Example 8] are 0.03 µM and 0.01 µM.
In the case of `C[C@@H](CN1CCC2(CC1)OC(=O)NN=C2c1ccc(C#N)cc1Br)NC(=O)c1cn(C)cn1` [Example 2-060], the IC50 on full-length human PLD1 (setting [1]) worked out at 0.027 µM; on full-length human PLD2 (setting [2]) it was 0.011 µM.
In the same order, the values of `C[C@@H](C[C@H]1CC[C@]2(CC1)OC(=O)NN=C2c1ccc(F)cc1Br)NC(=O)c1cc2cc(F)ccc2[nH]1` [Example 13] are 0.036 µM and less than 0.01 µM.
In the same order, the values of `CNC(=O)C(=O)N[C@@H](C)C[C@H]1CC[C@]2(CC1)OC(=O)NN=C2c1cnc(N2C[C@@H]3C[C@H]2CO3)cc1C` [Example 268] are 0.03 µM and less than 0.01 µM.
Turning to `C[C@@H](C[C@H]1CC[C@]2(CC1)OC(=O)NN=C2c1cc(C#N)ccc1Br)NC(=O)c1cnn(C)c1` [Example 325], the IC50 at full-length human PLD1 (setting [1]) is 0.015 µM; on full-length human PLD2 (setting [2]), less than 0.01 µM.
The matching figures for `C[C@@H](C[C@H]1CC[C@]2(CC1)OC(=O)NN=C2c1ccc(F)cc1)NC(=O)c1cc2ccccc2o1` [Example 7]: 0.03 µM and 0.044 µM.
For the compound `C[C@@H](C[C@H]1CC[C@]2(CC1)OC(=O)NN=C2c1cn(C)nc1I)NC(=O)c1cc(Cl)no1` [Example 2-046], the IC50 at full-length human PLD1 (setting [1]) amounted to 0.024 µM; at full-length human PLD2 (setting [2]), 0.118 µM.
